Laboratory results reported in patent US20230416205A1, “COMPOUNDS, COMPOSITIONS, AND METHODS” (Denali Therapeutics Inc, priority 2020, published 2023).
Where two headings read alike, the source gives them in different places.

Test system: NLRP3
Test: IL-1β secretion assay in PMA-differentiated, LPS/nigericin-stimulated THP-1 cells (384-well, ELISA read-out)
Format: cell-based, human
Conditions: Homo sapiens
In short: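 THP-1 cells differentiated with PMA (5 ng/mL, 40 h), primed in serum-free medium with 25 ng/mL LPS for 2 h, treated with compounds 1 h (0.5% DMSO), then stimulated with nigericin for 2 h at 37 °C. Supernatant IL-1β measured by ELISA; responses normalized to LPS+5 μM nigericin and LPS-only controls.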

[1] = THP-1, IL-1β secretion, PMA-differentiated THP-1 cells, LPS then nigericin stimulation, ELISA read at 450 nm, read-out: Activity
[2] = THP-1, Table 4, IL-1β secretion, LPS/nigericin-stimulated THP-1 cells, read-out: IC50

## Cn1cnc2cc(NC(=O)CN3CC4(CC4)c4cc(Br)ccc4C3=O)ccc21 [Example 147, 2-(6-bromo-1-oxospiro[3H-isoquinoline-4,1′-cyclopropane]-2-yl)-N-(1-methylbenzimidazol-5-yl)acetamide]
[1]
  IC50: < 10 µM
[2]
  IC50: 8.12 µM

## O=C(CN1CC2(CC2)c2cc(Br)ccc2C1=O)Nc1cccc2ccncc12 [Example 148, 2-(6-bromo-1-oxospiro[3H-isoquinoline-4,1′-cyclopropane]-2-yl)-N-isoquinolin-8-ylacetamide]
[1]
  IC50: < 10 µM
[2]
  IC50: 1.79 µM

## Cc1cc(NC(=O)CN2CC3(CC3)c3cc(Br)ccc3C2=O)n(-c2ccccc2)n1 [Example 149, 2-(6-bromo-1-oxospiro[3H-isoquinoline-4,1′-cyclopropane]-2-yl)-N-(5-methyl-2-phenylpyrazol-3-yl)acetamide]
[1]
  IC50: < 10 µM
[2]
  IC50: 6.58 µM

## Cc1cc(C)nc(NC(=O)CN2CC3(CC3)c3cc(Br)ccc3C2=O)c1 [Example 150, 2-(6-bromo-1-oxospiro[3H-isoquinoline-4,1′-cyclopropane]-2-yl)-N-(4,6-dimethylpyridin-2-yl)acetamide]
[1]
  IC50: < 10 µM
[2]
  IC50: 2.1 µM

## O=C(CN1CC2(CC2)c2cc(Br)ccc2C1=O)NCc1cccnc1C(F)(F)F [Example 151]
[1]
  IC50: < 10 µM
[2]
  IC50: 9.06 µM

## O=C(CN1CC2(CC2)c2cc(Br)ccc2C1=O)Nc1ccnn1-c1ccccc1 [Example 152, 2-(6-bromo-1-oxospiro[3H-isoquinoline-4,1′-cyclopropane]-2-yl)-N-(2-phenylpyrazol-3-yl)acetamide]
[1]
  IC50: > 15 µM
[2]
  IC50: 21.6 µM

## O=C(CN1CC2(CC2)c2cc(Br)ccc2C1=O)Nc1cncc2ccccc12 [Example 153, 2-(6-bromo-1-oxospiro[3H-isoquinoline-4,1′-cyclopropane]-2-yl)-N-isoquinolin-4-ylacetamide]
[1]
  IC50: > 15 µM
[2]
  IC50: 32.9 µM

## Cc1c[nH]c(=O)c(NC(=O)CN2CC3(CC3)c3cc(Br)ccc3C2=O)c1 [Example 154, 2-(6-bromo-1-oxospiro[3H-isoquinoline-4,1′-cyclopropane]-2-yl)-N-(5-methyl-2-oxo-1H-pyridin-3-yl)acetamide]
[1]
  IC50: < 10 µM
[2]
  IC50: 4.33 µM

## O=C(CN1CC2(CC2)c2cc(Br)ccc2C1=O)Nc1cccn2ccnc12 [Example 155, 2-(6-bromo-1-oxospiro[3H-isoquinoline-4,1′-cyclopropane]-2-yl)-N-imidazo[1,2-a]pyridin-8-ylacetamide]
[1]
  IC50: < 10 µM
[2]
  IC50: 3.61 µM

## O=C(CN1CC2(CC2)c2cc(Br)ccc2C1=O)Nc1cnc2[nH]ccc2c1 [Example 156, 2-(6-bromo-1-oxospiro[3H-isoquinoline-4,1′-cyclopropane]-2-yl)-N-(1H-pyrrolo[2,3-b]pyridin-5-yl)acetamide]
[1]
  IC50: < 10 µM
[2]
  IC50: 4.39 µM

## O=C(CN1CC2(CC2)c2cc(Br)ccc2C1=O)Nc1ccc2c(c1)OC(F)(F)O2 [Example 157, 2-(6-bromo-1-oxospiro[3H-isoquinoline-4,1′-cyclopropane]-2-yl)-N-(2,2-difluoro-1,3-benzodioxol-5-yl)acetamide]
[1]
  IC50: < 10 µM
[2]
  IC50: 9.98 µM

## O=C1c2ccc(Br)cc2C2(CC2)CN1CC(=O)N1CCc2cccnc21 [Example 158, 6-bromo-2-[2-(2,3-dihydropyrrolo[2,3-b]pyridin-1-yl)-2-oxoethyl]spiro[3H-isoquinoline-4,1′-cyclopropane]-1-one]
[1]
  IC50: < 10 µM
[2]
  IC50: 5.9 µM

## O=C(CN1CC2(CC2)c2cc(Br)ccc2C1=O)Nc1ccc2nncn2c1 [Example 159, 2-(6-bromo-1-oxospiro[3H-isoquinoline-4,1′-cyclopropane]-2-yl)-N-([1,2,4]triazolo[4,3-a]pyridin-6-yl)acetamide]
[1]
  IC50: < 10 µM
[2]
  IC50: 1.77 µM

## O=C(CN1CC2(CC2)c2cc(Br)ccc2C1=O)NC1(CO)CC1 [Example 160, 2-(6-bromo-1-oxospiro[3H-isoquinoline-4,1′-cyclopropane]-2-yl)-N-[1-(hydroxymethyl)cyclopropyl]acetamide]
[1]
  IC50: < 10 µM
[2]
  IC50: 4.2 µM

## O=C(CN1CC2(CC2)c2cc(Br)ccc2C1=O)NC1(c2ccccc2)CC1 [Example 161, 2-(6-bromo-1-oxospiro[3H-isoquinoline-4,1′-cyclopropane]-2-yl)-N-(1-phenylcyclopropyl)acetamide]
[1]
  IC50: < 10 µM
[2]
  IC50: 6.12 µM

## O=C(CN1CC2(CC2)c2cc(Br)ccc2C1=O)Nc1cccc2ncccc12 [Example 162, 2-(6-bromo-1-oxospiro[3H-isoquinoline-4,1′-cyclopropane]-2-yl)-N-quinolin-5-ylacetamide]
[1]
  IC50: < 10 µM
[2]
  IC50: 3.54 µM

## O=C(CN1CC2(CC2)c2cc(Br)ccc2C1=O)Nc1ncc(F)s1 [Example 163, 2-(6-bromo-1-oxospiro[3H-isoquinoline-4,1′-cyclopropane]-2-yl)-N-(5-fluoro-1,3-thiazol-2-yl)acetamide]
[1]
  IC50: < 10 µM
[2]
  IC50: 6.66 µM

## O=C(CN1CC2(CC2)c2cc(Br)ccc2C1=O)NCC1CCC1 [Example 164, 2-(6-bromo-1-oxospiro[3H-isoquinoline-4,1′-cyclopropane]-2-yl)-N-(cyclobutylmethyl)acetamide]
[1]
  IC50: < 10 µM
[2]
  IC50: 6.01 µM

## O=C(CN1CC2(CC2)c2cc(Br)ccc2C1=O)NC1CCN(c2ccc(Cl)nn2)CC1 [Example 165, 2-(6-bromo-1-oxospiro[3H-isoquinoline-4,1′-cyclopropane]-2-yl)-N-[1-(6-chloropyridazin-3-yl)piperidin-4-yl]acetamide]
[1]
  IC50: < 10 µM
[2]
  IC50: 1.63 µM

## O=C(CN1CC2(CC2)c2cc(Br)ccc2C1=O)Nc1n[nH]c2ccccc12 [Example 166, 2-(6-bromo-1-oxospiro[3H-isoquinoline-4,1′-cyclopropane]-2-yl)-N-(1H-indazol-3-yl)acetamide]
[1]
  IC50: < 10 µM
[2]
  IC50: 4.84 µM

## O=C(CN1CC2(CC2)c2cc(Br)ccc2C1=O)Nc1ccc2[nH]nnc2c1 [Example 167, N-(1H-benzotriazol-5-yl)-2-(6-bromo-1-oxospiro[3H-isoquinoline-4,1′-cyclopropane]-2-yl)acetamide]
[1]
  IC50: < 10 µM
[2]
  IC50: 0.146 µM

## O=C(CN1CC2(CC2)c2cc(Br)ccc2C1=O)Nc1cc(C2CC2)n[nH]1 [Example 168, 2-(6-bromo-1-oxospiro[3H-isoquinoline-4,1′-cyclopropane]-2-yl)-N-(3-cyclopropyl-1H-pyrazol-5-yl)acetamide]
[1]
  IC50: < 10 µM
[2]
  IC50: 2.83 µM

## O=C(CN1CC2(CC2)c2cc(Br)ccc2C1=O)Nc1ccc2nc[nH]c2c1 [Example 169, N-(3H-benzimidazol-5-yl)-2-(6-bromo-1-oxospiro[3H-isoquinoline-4,1′-cyclopropane]-2-yl)acetamide]
[1]
  IC50: < 10 µM
[2]
  IC50: 0.605 µM

## O=C(CN1CC2(CC2)c2cc(Br)ccc2C1=O)Nc1ccc2[nH]ncc2c1 [Example 170, 2-(6-bromo-1-oxospiro[3H-isoquinoline-4,1′-cyclopropane]-2-yl)-N-(1H-indazol-5-yl)acetamide]
[1]
  IC50: < 10 µM
[2]
  IC50: 1.12 µM

## Cc1cncc(NC(=O)CN2CC3(CC3)c3cc(Br)ccc3C2=O)n1 [Example 171, 2-(6-bromo-1-oxospiro[3H-isoquinoline-4,1′-cyclopropane]-2-yl)-N-(6-methylpyrazin-2-yl)acetamide]
[1]
  IC50: 10 to 15 µM
[2]
  IC50: 11 µM

## O=C(CN1CC2(CC2)c2cc(Br)ccc2C1=O)Nc1ccc(-c2nnn[nH]2)cc1 [Example 172, 2-(6-bromo-1-oxospiro[3H-isoquinoline-4,1′-cyclopropane]-2-yl)-N-[4-(1H-tetrazol-5-yl)phenyl]acetamide]
[1]
  IC50: > 15 µM
[2]
  IC50: 23.7 µM

## O=C(CN1CC2(CC2)c2cc(Br)ccc2C1=O)Nc1ccc2ocnc2c1 [Example 173, N-(1,3-benzoxazol-5-yl)-2-(6-bromo-1-oxospiro[3H-isoquinoline-4,1′-cyclopropane]-2-yl)acetamide]
[1]
  IC50: < 10 µM
[2]
  IC50: 2.3 µM

## CC(C)(O)CC1(NC(=O)CN2CC3(CC3)c3cc(Br)ccc3C2=O)CC1 [Example 174, 2-(6-bromo-1-oxospiro[3H-isoquinoline-4,1′-cyclopropane]-2-yl)-N-[1-(2-hydroxy-2-methylpropyl)cyclopropyl]acetamide]
[1]
  IC50: 10 to 15 µM
[2]
  IC50: 10.9 µM

## O=C(CN1CC2(CC2)c2cc(Br)ccc2C1=O)Nc1ccn2nccc2n1 [Example 175, 2-(6-bromo-1-oxospiro[3H-isoquinoline-4,1′-cyclopropane]-2-yl)-N-pyrazolo[1,5-a]pyrimidin-5-ylacetamide]
[1]
  IC50: < 10 µM
[2]
  IC50: 0.672 µM

## O=C(CN1CC2(CC2)c2cc(Br)ccc2C1=O)Nc1cc2cccnc2cn1 [Example 176, 2-(6-bromo-1-oxospiro[3H-isoquinoline-4,1′-cyclopropane]-2-yl)-N-(1,7-naphthyridin-6-yl)acetamide]
[1]
  IC50: < 10 µM
[2]
  IC50: 2.95 µM

## N#Cc1ccc2c(c1)C1(CC1)CN(CC(=O)Nc1ncc(F)cn1)C2=O [Example 177, 2-(6-cyano-1-oxospiro[3H-isoquinoline-4,1′-cyclopropane]-2-yl)-N-(5-fluoropyrimidin-2-yl)acetamide]
[1]
  IC50: < 10 µM
[2]
  IC50: 4.41 µM

## CC1(C)CN(CC(=O)Nc2ncc(F)cn2)C(=O)c2ccc(Br)cc21 [Example 178, 2-(6-bromo-4,4-dimethyl-1-oxo-3H-isoquinolin-2-yl)-N-(5-fluoropyrimidin-2-yl)acetamide]
[1]
  IC50: < 10 µM
[2]
  IC50: 1.05 µM

## O=C(CN1CC2(CC2)c2cc(Br)ccc2C1=O)Nc1cn2ccnc2cn1 [Example 179, 2-(6-bromo-1-oxospiro[3H-isoquinoline-4,1′-cyclopropane]-2-yl)-N-imidazo[1,2-a]pyrazin-6-ylacetamide]
[1]
  IC50: < 10 µM
[2]
  IC50: 2.24 µM

## O=C(CN1CC2(CC2)c2cc(Br)ccc2C1=O)Nc1ccc2nccn2n1 [Example 180, 2-(6-bromo-1-oxospiro[3H-isoquinoline-4,1′-cyclopropane]-2-yl)-N-imidazo[1,2-b]pyridazin-6-ylacetamide]
[1]
  IC50: < 10 µM
[2]
  IC50: 0.508 µM
